According to ChEMBL document CHEMBL1201862, “PubChem BioAssay data set” (2004):
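Interpolation was linear, between the two tested concentrations surrounding the appropriate level; five concentrations were tested over 48 hours in 96-well plates. GI50 marks 50% less growth.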 Active and inactive are the calls of the source. Rule as the data show it: active = GI50 up to about 1.1 µM and inactive = higher.

Columns and labels:
Experiment in all cases: DTP human tumour cell line panel, 48 h
A549 = test system: A549
K562 = test system: K562
OVCAR-8 = test system: OVCAR-8
EKVX = test system: EKVX
SK-MEL-2 = test system: SK-MEL-2
NCI-H460 = test system: NCI-H460
SN12C = test system: SN12C
ACHN = test system: ACHN
RPMI-8226 = test system: RPMI-8226
SK-MEL-5 = test system: SK-MEL-5
SNB-19 = test system: SNB-19
PC-3 = test system: PC-3
RXF 393 = test system: RXF 393
LOX IMVI = test system: LOX IMVI
NCI-H23 = test system: NCI-H23
U-251 = test system: U-251
M14 = test system: M14
OVCAR-4 = test system: OVCAR-4
SF-539 = test system: SF-539
NCI-H522 = test system: NCI-H522

Row | Compound | GI50 (A549) | GI50 (K562) | GI50 (OVCAR-8) | GI50 (EKVX) | GI50 (SK-MEL-2) | GI50 (NCI-H460) | GI50 (SN12C) | GI50 (ACHN) | GI50 (RPMI-8226) | GI50 (SK-MEL-5) | GI50 (SNB-19) | GI50 (PC-3) | GI50 (RXF 393) | GI50 (LOX IMVI) | GI50 (NCI-H23) | GI50 (U-251) | GI50 (M14) | GI50 (OVCAR-4) | GI50 (SF-539) | GI50 (NCI-H522)
1 | CSc1ncc2c(C#N)c3ccccn3c(=O)c2n1 | > 100 µM (inactive) | > 100 µM (inactive) | > 100 µM (inactive) | > 100 µM (inactive) | > 100 µM (inactive) | 57.3 µM (inactive) | > 100 µM (inactive) | > 100 µM (inactive) | > 100 µM (inactive) | > 100 µM (inactive) | > 100 µM (inactive) | > 100 µM (inactive) | > 100 µM (inactive) | > 100 µM (inactive) | > 100 µM (inactive) | > 100 µM (inactive) | > 100 µM (inactive) | > 100 µM (inactive) | > 100 µM (inactive) | 
2 | COc1cccc2c1C(=O)c1c(O)c3c(c(O)c1C2=O)C[C@@](O)(C(=O)CO)C[C@@H]3OC1CC(N2CCOCC2C#N)C(O)C(C)O1 (stereo not given in full) | 4.26e-05 µM (active) | 2.52e-05 µM (active) | 5.18e-05 µM (active) | 0.000227 µM (active) |  | 8.17e-06 µM (active) | 2.14e-05 µM (active) | 3.27e-05 µM (active) | 3.01e-05 µM (active) | 3.72e-05 µM (active) | 3.52e-05 µM (active) | 0.000107 µM (active) | 1.91e-05 µM (active) | 0.0025 µM (active) | 2.45e-05 µM (active) | 3.01e-05 µM (active) | 5.42e-05 µM (active) | 2.18e-05 µM (active) | 2.41e-05 µM (active) | 3.05e-05 µM (active)
3 | CCc1cc(-c2nsc(=O)o2)c(S(=O)(=O)CC)s1 | > 100 µM (inactive) | 37.2 µM (inactive) | 88.1 µM (inactive) | > 100 µM (inactive) | 95.5 µM (inactive) | > 100 µM (inactive) | > 100 µM (inactive) | > 100 µM (inactive) | 49.4 µM (inactive) | > 100 µM (inactive) | 77.8 µM (inactive) | 33.4 µM (inactive) |  | 56.6 µM (inactive) | 45.4 µM (inactive) | > 100 µM (inactive) | 76 µM (inactive) | > 100 µM (inactive) | > 100 µM (inactive) | 22.2 µM (inactive)
4 | CC(C)(CCC(C)(C)N1OC1c1ccccc1)N1OC1c1ccccc1 (stereo not given) | 11.6 µM (inactive) | 13.4 µM (inactive) | > 100 µM (inactive) |  | 21.5 µM (inactive) | 33 µM (inactive) | > 100 µM (inactive) | 19.8 µM (inactive) | 28.9 µM (inactive) | 17.5 µM (inactive) | 47.5 µM (inactive) | 19.9 µM (inactive) |  | 26.4 µM (inactive) | 55.3 µM (inactive) | 72.9 µM (inactive) |  | 86.3 µM (inactive) | 22.4 µM (inactive) | 7.16 µM (inactive)
5 | O=[N+]([O-])c1cc(Br)cc2cc(Cl)cnc12 | > 100 µM (inactive) | > 100 µM (inactive) | 62.4 µM (inactive) | > 100 µM (inactive) |  | > 100 µM (inactive) | > 100 µM (inactive) | > 100 µM (inactive) | > 100 µM (inactive) | 81.8 µM (inactive) | > 100 µM (inactive) | > 100 µM (inactive) | 71.8 µM (inactive) | 82.6 µM (inactive) | > 100 µM (inactive) | > 100 µM (inactive) | > 100 µM (inactive) | > 100 µM (inactive) | > 100 µM (inactive) | > 100 µM (inactive)
6 | CC(C)OCC(O)COc1cc(=O)oc2ccccc12 (stereo not given) | > 100 µM (inactive) | > 100 µM (inactive) | > 100 µM (inactive) | > 100 µM (inactive) | > 100 µM (inactive) | > 100 µM (inactive) | > 100 µM (inactive) | > 100 µM (inactive) | > 100 µM (inactive) | > 100 µM (inactive) | > 100 µM (inactive) | > 100 µM (inactive) |  | > 100 µM (inactive) | > 100 µM (inactive) | > 100 µM (inactive) | > 100 µM (inactive) | > 100 µM (inactive) |  | > 100 µM (inactive)
7 | COc1cc2c(c(OC)c1OC)C(=O)[C@@H](O)[C@H]2NC(N)=O | > 100 µM (inactive) | > 100 µM (inactive) | > 100 µM (inactive) | > 100 µM (inactive) |  | > 100 µM (inactive) | > 100 µM (inactive) | > 100 µM (inactive) | > 100 µM (inactive) | > 100 µM (inactive) | > 100 µM (inactive) | > 100 µM (inactive) | > 100 µM (inactive) | > 100 µM (inactive) | > 100 µM (inactive) | > 100 µM (inactive) | > 100 µM (inactive) |  | > 100 µM (inactive) | > 100 µM (inactive)
8 | CC(C)CCCC(C)[C@H]1CCC2[C@@H]3CCC4Cc5nc6c(nc5C[C@]4(C)C3CC[C@@]21C)CC1CC[C@@H]2C(C[C@@H](O)[C@@]3(C)C2C[C@@H]2OC4(CCC(C)CO4)C(C)[C@@H]23)[C@@]1(C)C6 (stereo not given in full) | > 100 µM (inactive) | > 100 µM (inactive) | > 100 µM (inactive) | > 100 µM (inactive) |  | > 100 µM (inactive) | > 100 µM (inactive) | > 100 µM (inactive) | > 100 µM (inactive) | > 100 µM (inactive) | > 100 µM (inactive) | > 100 µM (inactive) | > 100 µM (inactive) |  | > 100 µM (inactive) | > 100 µM (inactive) | > 100 µM (inactive) | > 100 µM (inactive) | > 100 µM (inactive) | > 100 µM (inactive)
9 | O=C(CNc1ccccc1[N+](=O)[O-])Nn1cnc2ccc(S(=O)(=O)Nc3ccccc3[N+](=O)[O-])cc2c1=O | > 100 µM (inactive) | > 100 µM (inactive) | > 100 µM (inactive) | > 100 µM (inactive) | > 100 µM (inactive) | > 100 µM (inactive) | > 100 µM (inactive) | > 100 µM (inactive) | > 100 µM (inactive) |  | > 100 µM (inactive) | > 100 µM (inactive) |  | > 100 µM (inactive) | > 100 µM (inactive) | > 100 µM (inactive) | > 100 µM (inactive) | > 100 µM (inactive) | > 100 µM (inactive) | > 100 µM (inactive)
10 | CC1OC2OC3C(OCC(O)C3O)OC(=O)[C@]34CCC(C)(C)CC3C3=CCC5[C@@]6(C)C[C@H](O)[C@H](OC7OC(CO)C(O)C(O)C7OC7OCC(OC(=O)CC(C)(O)CC(=O)OC1C(OC1OC(CO)C(O)C(O)C1O)C2O)C(O)C7O)[C@@](C)(CO)C6CC[C@@]5(C)[C@]3(C)CC4 (stereo not given in full) | 3.85 µM (inactive) |  | 12.3 µM (inactive) |  | 4.18 µM (inactive) | 12 µM (inactive) | 12.2 µM (inactive) | 8.3 µM (inactive) | 10.6 µM (inactive) | 11.6 µM (inactive) | 11.4 µM (inactive) | 7.91 µM (inactive) |  | 10.6 µM (inactive) | 4.33 µM (inactive) | 8.71 µM (inactive) | 3.41 µM (inactive) | 6.25 µM (inactive) | 13.5 µM (inactive) | 11.6 µM (inactive)
11 | CCCCc1ccc(-n2sc3ncccc3c2=O)cc1 | 14 µM (inactive) |  | 12.5 µM (inactive) | 11.1 µM (inactive) | 12.2 µM (inactive) | 5.26 µM (inactive) | 16.4 µM (inactive) | 11.4 µM (inactive) | 8.02 µM (inactive) | 11.3 µM (inactive) | 21.9 µM (inactive) | 11 µM (inactive) |  | 5.66 µM (inactive) | 15.9 µM (inactive) | 15.1 µM (inactive) | 11.2 µM (inactive) | 13.6 µM (inactive) | 21 µM (inactive) | 2.58 µM (inactive)
12 | CCOC(=O)C1C(c2ccc(OC)cc2)c2c(nn(-c3ccccc3)c2O)CC1(O)OCC (stereo not given) | 24 µM (inactive) |  | > 100 µM (inactive) | 98.9 µM (inactive) | > 100 µM (inactive) | 6.75 µM (inactive) | > 100 µM (inactive) | 25.4 µM (inactive) | 2.58 µM (inactive) | 26.6 µM (inactive) | 10 µM (inactive) | 9.31 µM (inactive) |  | 0.597 µM (active) | > 100 µM (inactive) | > 100 µM (inactive) | 19.7 µM (inactive) | > 100 µM (inactive) | > 100 µM (inactive) | 50.4 µM (inactive)
13 | Cc1ncc2c(=O)c3c(oc2n1)c1ccccc1n3Cc1ccccc1 | > 100 µM (inactive) | > 100 µM (inactive) | > 100 µM (inactive) | > 100 µM (inactive) |  | > 100 µM (inactive) | > 100 µM (inactive) | 53.5 µM (inactive) | > 100 µM (inactive) | > 100 µM (inactive) | > 100 µM (inactive) | > 100 µM (inactive) | > 100 µM (inactive) | > 100 µM (inactive) | > 100 µM (inactive) | 75.5 µM (inactive) |  |  | > 100 µM (inactive) | > 100 µM (inactive)
14 | N#Cc1c(-c2ccc(Cl)cc2)c2c(n(C3OC(CO)C(O)C(O)C3O)c1=S)CCC2 (stereo not given) | 31.7 µM (inactive) | 14.7 µM (inactive) |  |  | 34.5 µM (inactive) | 33 µM (inactive) | 33.9 µM (inactive) | 33 µM (inactive) | 45.8 µM (inactive) | 13.3 µM (inactive) | 22 µM (inactive) | 28.4 µM (inactive) | 21.9 µM (inactive) | 16.9 µM (inactive) | 25.4 µM (inactive) | 31 µM (inactive) | 22.6 µM (inactive) | 34 µM (inactive) | 19.2 µM (inactive) | 
15 | CC(=O)OCC1OC(c2nc3ccccc3s2)=CC(OC(C)=O)C1OC(C)=O (stereo not given) | > 100 µM (inactive) | 50.5 µM (inactive) | > 100 µM (inactive) | > 100 µM (inactive) |  | > 100 µM (inactive) | > 100 µM (inactive) | > 100 µM (inactive) | 37.3 µM (inactive) | > 100 µM (inactive) | > 100 µM (inactive) | > 100 µM (inactive) | 78.3 µM (inactive) | > 100 µM (inactive) | > 100 µM (inactive) | 89.9 µM (inactive) |  | > 100 µM (inactive) | > 100 µM (inactive) | > 100 µM (inactive)
